Measurements from patent US9255098B2, “Xanthine derivative” (Chengdu Easton Pharmaceutical Co., Ltd., priority 2012, dated 2016).
Where a name gives a salt, the structure may show the parent alone.

Key:
[1] = test system: normal KM mice; test: Impact on glucose tolerance in normal mice; assay type: in vivo; details: for blood glucose at 30 min after glucose loaded / blood glucose at 60 min after glucose loaded / blood glucose at 120 min after glucose loaded / Fasting blood glucose: normal KM mice, x ± SD; for blood glucose at 30 min after glucose loaded / blood glucose at 60 min after glucose loaded / blood glucose at 120 min after glucose loaded / blood glucose value compared with the positive drug (Linagliptin) / blood glucose levels compared with the blank group: 3 mg/kg i.g; for blood glucose at 30 min after glucose loaded / blood glucose at 60 min after glucose loaded / blood glucose at 120 min after glucose loaded: glucose 8 g/kg i.g 30 min after drug; for Fasting blood glucose: fasted, before administration (baseline), group dosed 3 mg/kg i.g; for blood glucose value compared with the positive drug (Linagliptin) / blood glucose levels compared with the blank group: normal mice, at 30, 60 and 120 min after glucose loaded; for blood glucose levels compared with the blank group: P<0.01
Experimental: KM mice, 6 weeks old, weighing 18˜22 g, half male and half female, 60 mice, provided by Chengdu Dashuo Biological Technology Co., Ltd., Production license: SCXK (Chuan) 2008-24. Animals were housed in the animal room after purchased, adaptively observed for at least three days, and used for assays […] they were qualified for the quarantine standard.
(§1) 2.1 Animals were fasted for at least 12 hours before starting the assay;
2.2 Grouping: fasting blood glucose values of the fasted mice were measured, and the mice were randomly grouped according to Table 1, with no significant difference between the groups;
(§2) Animals in each group were administrated with corresponding investigational compounds according the Table 1 by intragastric administration (i.g), then administrated with glucose (8 g/kg) respectively by intragastric administration at 30 min after administrating drugs, and the blood glucose values thereof were measured respectively at 30 min, 60 min and 120 min after administrating the glucose (glucose loaded).
(§3) Excel was used for statistics, experimental data were expressed as ( x±SD), and two-sided T-test method was used to statistically compare the experimental data among multiple groups.

[2] = test system: Type II spontaneous diabetic KKAy obese mice; test: Impact on blood glucose in spontaneous diabetic mice; assay type: in vivo; details: for blood glucose at 30 min after glucose loaded / blood glucose at 60 min after glucose loaded / blood glucose at 120 min after glucose loaded: glucose 8 g/kg i.g 30 min after drug; for blood glucose at 30 min after glucose loaded / blood glucose at 60 min after glucose loaded / blood glucose at 120 min after glucose loaded / Fasting blood glucose: x ± SD; for Fasting blood glucose: fasted, before administration (baseline), group dosed 3 mg/kg i.g
Experimental: Type II spontaneous diabetic KKAy obese mice, 60 mice, 14 weeks old, half male and half female, purchased from Institute of Laboratory Animal Science, Chinese Academy of Medical Sciences (Qualified number: SCXK (Jing) 2009-0004). Animals were housed in the animal room after purchased, adaptively observed for at least three days, and used for assays […] they were qualified for the quarantine standard.
as §1
2.2 Fasting blood glucose values of the fasted mice were measured by ACCU-CHEK active glucose test strips, and the mice were randomly grouped according to Table 3. In addition, the C57BL/6J mice were used for the blank control group, while the type II spontaneous diabetic KKAy mice were used for the model group.
as §2, with “according” for “according the”, “Table 3” for “Table 1”
as §3

[3] = target: Dipeptidyl peptidase IV (DPP-IV) (Homo sapiens (Human), UniProt P27487); test: DPP-IV activity inhibitory assay in vitro; assay type: biochemical; details: substrate Gly-Pro-7-amido-4-methylcoumarin, fluorescence 355/460 nm
Experimental: 2.1 Dipeptidyl peptidase IV (DPP-IV): SIGMA products, Item No. D4943-1VL.
2.3 DPP-IV buffer: containing 25 mM Hepes, 140 mM NaCl, 1% BSA, 80 mM MgCl2, of which pH was adjusted to 8.0.
2.5 Testing equipment: envision (PerkinElmer Company).
The variation of the product amount can be determined by the variation of fluorescence intensity, so as to reflect the activity level of the enzyme.
The dipeptidyl peptidase IV (DPP-IV), DPP-IV buffer and test samples were used to construct the reaction system of 200 μL, while the blank control (without enzyme and samples) and negative control (without samples) having the same volume were set up. […] Inhibition ratio was calculated according to the fluorescence intensity F value, inhibition ratio=[1−(Fsample−Fblank)/(Fnegative−Fblank)]×100. […] According to inhibition ratio, 4 Parameter Logistic Model in Xlfit software was applied to calculate IC50.

Dipeptidyl peptidase IV (DPP-IV), sequence (P27487 whole entry): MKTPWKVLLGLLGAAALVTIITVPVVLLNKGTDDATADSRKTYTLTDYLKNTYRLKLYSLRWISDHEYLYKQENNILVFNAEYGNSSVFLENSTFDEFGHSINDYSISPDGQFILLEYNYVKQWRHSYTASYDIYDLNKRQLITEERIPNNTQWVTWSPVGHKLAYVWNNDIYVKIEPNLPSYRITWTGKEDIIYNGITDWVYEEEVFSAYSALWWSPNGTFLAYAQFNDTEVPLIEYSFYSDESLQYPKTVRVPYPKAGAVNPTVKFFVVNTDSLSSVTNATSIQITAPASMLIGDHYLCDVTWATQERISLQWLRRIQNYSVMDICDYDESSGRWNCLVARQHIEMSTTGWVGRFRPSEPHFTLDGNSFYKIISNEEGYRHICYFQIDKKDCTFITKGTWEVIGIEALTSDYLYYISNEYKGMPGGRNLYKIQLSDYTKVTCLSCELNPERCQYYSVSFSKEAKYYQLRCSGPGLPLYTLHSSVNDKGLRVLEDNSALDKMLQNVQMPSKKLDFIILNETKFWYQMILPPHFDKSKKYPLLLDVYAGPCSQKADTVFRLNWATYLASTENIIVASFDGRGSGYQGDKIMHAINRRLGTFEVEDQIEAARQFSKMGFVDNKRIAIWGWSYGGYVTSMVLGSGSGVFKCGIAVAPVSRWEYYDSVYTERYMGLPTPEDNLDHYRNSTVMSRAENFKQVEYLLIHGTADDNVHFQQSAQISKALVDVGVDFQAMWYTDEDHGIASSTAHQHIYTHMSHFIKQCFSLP

IC50 [3] [nM] | IC50 ([3]; hydrochloride) [nM] | SMILES | blood glucose at 30 min after glucose loaded [1] [mmol/L] | blood glucose at 60 min after glucose loaded [1] [mmol/L] | blood glucose at 120 min after glucose loaded [1] [mmol/L] | Fasting blood glucose [1] [mmol/L] | blood glucose value compared with the positive drug (Linagliptin) [1] | blood glucose levels compared with the blank group [1] | blood glucose value compared with the positive drug Linagliptin at 30 min after glucose loaded ([2]; 3 mg/kg i.g) | blood glucose at 30 min after glucose loaded ([2]; 3 mg/kg i.g) | blood glucose at 60 min after glucose loaded ([2]; 3 mg/kg i.g) | blood glucose at 120 min after glucose loaded ([2]; 3 mg/kg i.g) [mmol/L] | Fasting blood glucose [2] [mmol/L] | blood glucose levels compared with the model group ([2]; 3 mg/kg i.g, at 30, 60 and 120 min after glucose loaded, P<0.01)
0.1 | – | CC#CCn1c(N2CCC[C@@H](N)C2)nc2c1c(=O)n(Cc1nc3ccccc3s1)c(=O)n2C [Ex. 2, 1-[(1,3-benzothiazol-2-yl)methyl]-3-methyl-7-(2-butyn-1-yl)-8-[(R)-3-amino-piperidin-1-yl]-xanthine] | 15.59 ± 2.04 | 12.78 ± 1.97 | 8.96 ± 1.16 | 7.43 ± 1.32 | significantly decreased | extremely significantly decrease | significantly decreased | 15.59 ± 1.23^▴▴★ mmol/L | 11.41 ± 1.58^▴▴★ mmol/L | 10.81 ± 1.37 | 9.07 ± 0.67 | –
0.2 | – | CC#CCn1c(N2CCC[C@@H](N)C2)nc2c1c(=O)n(Cc1nc3cc(Cl)ccc3s1)c(=O)n2C [Ex. 3, 1-[(5-chloro-1,3-benzothiazol-2-yl)methyl]-3-methyl-7-(2-butyn-1-yl)-8-[(R)-3-amino-piperidin-1-yl]-xanthine] | 15.61 ± 1.10 | 13.49 ± 1.31 | 8.90 ± 1.26 | 7.19 ± 1.04 | significantly decreased | extremely significantly decrease | significantly decreased | 15.86 ± 1.04^▴▴★ mmol/L | 11.28 ± 1.67^▴▴★ mmol/L | 10.73 ± 1.46 | 9.15 ± 0.61 | –
– | 0.15 | CC#CCn1c(N2CCC[C@@H](N)C2)nc2c1c(=O)n(Cc1nc3ccccc3s1)c(=O)n2C [Ex. 5, 1-[(1,3-benzothiazol-2-yl)methyl]-3-methyl-7-(2-butyn-1-yl)-8-[(R)-3-amino-piperidin-1-yl]-xanthine hydrochloride] | – | – | – | – | – | – | – | – | – | – | – | –

Second part, the compound before the results:

SMILES | IC50 [3] [nM] | IC50 ([3]; hydrochloride) [nM] | blood glucose at 30 min after glucose loaded [1] [mmol/L] | blood glucose at 60 min after glucose loaded [1] [mmol/L] | blood glucose at 120 min after glucose loaded [1] [mmol/L] | Fasting blood glucose [1] [mmol/L] | blood glucose value compared with the positive drug (Linagliptin) [1] | blood glucose levels compared with the blank group [1] | blood glucose value compared with the positive drug Linagliptin at 30 min after glucose loaded ([2]; 3 mg/kg i.g) | blood glucose at 30 min after glucose loaded ([2]; 3 mg/kg i.g) | blood glucose at 60 min after glucose loaded ([2]; 3 mg/kg i.g) | blood glucose at 120 min after glucose loaded ([2]; 3 mg/kg i.g) [mmol/L] | Fasting blood glucose [2] [mmol/L] | blood glucose levels compared with the model group ([2]; 3 mg/kg i.g, at 30, 60 and 120 min after glucose loaded, P<0.01)
CC#CCn1c(N2CCC[C@@H](N)C2)nc2c1c(=O)n(Cc1nc3cc(F)ccc3s1)c(=O)n2C [Ex. 1, 1-[(5-fluoro-1,3-benzothiazol-2-yl)methyl]-3-methyl-7-(2-butyn-1-yl)-8-[(R)-3-amino-piperidin-1-yl]-xanthine] | – | – | 15.02 ± 1.99 | 12.61 ± 1.98 | 8.79 ± 0.88 | 7.27 ± 0.74 | extremely significantly decreased | extremely significantly decrease | extremely significantly decreased | 14.98 ± 1.53^▴▴★★ mmol/L | 11.10 ± 2.45^▴▴★ mmol/L | 9.97 ± 1.28 | 9.29 ± 0.71 | –
CC#CCn1c(N2CCC[C@@H](N)C2)nc2c1c(=O)n(Cc1nc3cc(F)ccc3s1)c(=O)n2C.Cl [Ex. 4, 1-[(5-fluoro-1,3-benzothiazol-2-yl)methyl]-3-methyl-7-(2-butyn-1-yl)-8-[(R)-3-amino-piperidin-1-yl]-xanthine hydrochloride] | – | – | 15.50 ± 1.94 | 12.75 ± 1.43 | 8.91 ± 0.98 | 7.25 ± 0.98 | significantly decreased | extremely significantly decrease | significantly decreased | 15.60 ± 1.30^▴▴★ mmol/L | 11.45 ± 1.60^▴▴★ mmol/L | 10.75 ± 1.20 | 9.17 ± 0.58 | –
CC#CCn1c(N2CCC[C@@H](N)C2)nc2c1c(=O)n(Cc1nc(C)c3ccccc3n1)c(=O)n2C [Linagliptin, reference compound] | – | – | 17.07 ± 1.83 | 14.98 ± 1.66 | 9.96 ± 0.89 | 7.13 ± 0.86 | – | extremely significantly decrease | – | 17.14 ± 1.45 mmol/L | 13.10 ± 1.38 mmol/L | 11.27 ± 1.43 | 9.09 ± 0.53 | extremely significantly decrease
